Data published in PubChem BioAssay (NCI).
Values joined by “and” are separate entries in the source; they are usually repeats but may differ in a detail not shown here. Equal values may be shown once.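 Assay format: 96-well plates, 48-hour exposure. GI50 marks 50% less growth. TGI marks complete inhibition of growth.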

Each molecule was assayed on SK-MEL-28 melanoma (assay: NCI anticancer screen, dose series, 48 h).

SMILES | GI50 | TGI
c1coc(-c2c3ccc(=[N+]4CCCCC4)cc-3oc3cc(N4CCCCC4)ccc23)c1 | 0.114 µM | 0.854 µM
Cc1[nH]c2ccccc2c1C1Cc2ccccc2N1C(=O)C#Cc1ccc([N+](=O)[O-])cc1 (centres undefined) | – | > 100 µM
CCC/C=C/C=C/C1CC(O)C(O)C(=O)C1CO (centres undefined) | – | > 100 µM
CCOC(=O)NC(=O)c1cn(C2CCCCC2)c(=O)[nH]c1=O | – | > 100 µM
Cn1c(=O)nc2n(-c3cc(C(F)(F)F)cc(C(F)(F)F)c3)c3ccccc3nc-2c1=O | – | > 100 µM

Each molecule was assayed on SK-MEL-5 melanoma (assay: NCI anticancer screen, dose series, 48 h).

SMILES | GI50 | TGI
O=C1CCCN1c1ccccc1I(=O)=O | > 100 µM | > 100 µM
O=C(O)c1cccc(COc2ccc([N+](=O)[O-])cc2Cl)c1 | 40.1 µM | > 100 µM
Nc1ccccc1C(=O)/C=C/c1c(O)ccc2ccccc12 | – | > 100 µM
CCC(C)(O)c1cnc(CC(C)C)c(=O)n1O (centres undefined) | – | > 100 µM
CCC1CN2CCc3cc(OC)c(OC)cc3C2CC1CC1c2cc(OC)c(OC)cc2CCN1C(=O)C1CCCN1 (centres undefined) | – | 31.3 µM
CC(C(=O)c1ccc(Cl)cc1)/C(=N/NC(=O)NN)C(=O)Nc1cccc(C(F)(F)F)c1 (centres undefined) | – | > 100 µM
COc1cc2c(/C=N\N=C(N)N)c[nH]c2cc1C | 17.2 µM | 30.9 µM
CCOP(=O)(OCC)C(C(=O)OC)C(=O)C(=O)Nc1ccc(Cl)cc1Cl (centres undefined) | – | > 100 µM
CC(C)=C1CCC(CN(C)C)C1=O (centres undefined) | – | 32.9 µM
COc1cccc(/C=N/[N-]C(=O)c2ccncc2)c1[O-].COc1cccc(/C=N/[N-]C(=O)c2ccncc2)c1[O-].[O]=[U](=[O])([OH2+])[OH2+] | 11.6 µM | > 100 µM
ClC(Cl)=C1C(=C(Cl)Cl)C(Cl)(Cl)C1(Cl)Cl | – | 9.98 µM
CC(C)(C)c1ccc2c(c1)S(=O)(=O)Nc1ccc(Cl)cc1NS(=O)(=O)c1cc(C(C)(C)C)ccc1OCCOCCOCCO2 | – | > 100 µM
Cc1ccc(OCCOCCOCCOCCOc2ccc(C)n(O)c2=S)c(=S)n1O | 0.0438 µM | 11.3 µM
N#CC(=Nc1ccccc1N(C(=O)c1ccccc1)C(=O)c1ccccc1)c1ccccc1 | – | > 100 µM
COc1c(C)n(CCO)ccc1=O | – | > 100 µM
COC(=O)C(=O)C(C(C)=O)C(=O)NCc1ccc(OC)c(OC)c1 (centres undefined) | – | > 100 µM
Nc1c(-c2ccccc2-c2c(N)[n+]([O-])c3ccccc3[n+]2[O-])[n+]([O-])c2ccccc2[n+]1[O-] | – | 31 µM
CCOC(=O)NC(=O)c1cn(C(CC)COC(=O)NCCCCCCNC(=O)OCC(CC)n2cc(C(=O)NC(=O)OCC)c(=O)[nH]c2=O)c(=O)[nH]c1=O (centres undefined) | – | > 100 µM
O=C(CC(=O)C1CCOC1=O)C(=O)Nc1cccc(Cl)c1 (centres undefined) | – | > 100 µM

SMILES | GI50 | TGI
CCN1c2ccccc2-c2c3c1cc(C)cc3c1ccccc1[n+]2CC | – | 1.84 µM
Cc1cccc(C2=C/C(=C(\SS/C(C(=O)c3ccc(OCC(=O)O)c(Cl)c3Cl)=C3\C=C(c4cccc(C)c4)SS3)C(=O)c3ccc(OCC(=O)O)c(Cl)c3Cl)SS2)c1 | – | 47.8 µM
CC(=O)N1CCN(c2ccc(OCC3COC(Cn4ccnc4)(c4ccc(Cl)cc4Cl)O3)cc2)CC1 (centres undefined) | – | 24.9 µM
O=C(Cc1nc2c3c(ccc2[nH]c1=O)C(=O)c1ccccc1C3=O)C(=O)Nc1ccccc1[N+](=O)[O-] | – | 37.3 µM
CC1=C(C#N)C(=O)CC(c2ccc(Cl)cc2)N(C)N1 (centres undefined) | – | > 100 µM
Nc1nc(-c2ccc(Cl)c([N+](=O)[O-])c2)cs1 | – | > 100 µM
COc1cc(/C=C2\[C@H]3c4c(c(OC)c(C)c(OC)c4OC)CC(C(=O)N2Cc2ccccc2)N3C)c(OC)c(C)c1OC | – | 33 µM
CN(C)C(=S)SSC(=S)N(C)C | – | > 100 µM and 20.8 µM and 29.2 µM
COc1ccc(C(CC(=O)c2ccc3c(c2)OCO3)c2c(O)c3ccccc3oc2=O)cc1OC (centres undefined) | – | > 100 µM
O=C(N/C(=C\c1ccc([N+](=O)[O-])cc1)c1nc2ccccc2[nH]1)c1ccccc1 | – | > 100 µM
COC(=O)/C([Se]c1c(C)cc(C)cc1C)=C(/[Se]c1c(C)cc(C)cc1C)C(=O)OC | – | > 100 µM
NC(=O)C(=O)CC(=O)c1ccccc1NC1=CC(=O)C(=O)c2ccccc21 | – | > 55.1 µM
CCCC(=O)C1=C(O)C(Cc2c(O)c(C)c(O)c(C(=O)CCC)c2O)=C(O)C(C)(C)C1=O | – | > 50 µM
COC(=O)/C(=N/O)C(C(=O)C=C(C)C)C(=O)C(=O)Nc1nc2ccc([N+](=O)[O-])cc2s1 (centres undefined) | – | > 100 µM
Cc1ccccc1C1=[N+]([O-])c2ccc(Cl)cc2C1=O | – | 26.7 µM
c1coc(-c2c3ccc(=[N+]4CCCCC4)cc-3oc3cc(N4CCCCC4)ccc23)c1 | 0.177 µM | 0.471 µM
CCC/C=C/C=C/C1CC(O)C(O)C(=O)C1CO (centres undefined) | – | > 100 µM
Cn1c(=O)nc2n(-c3cc(C(F)(F)F)cc(C(F)(F)F)c3)c3ccccc3nc-2c1=O | – | 54.4 µM

Each molecule was assayed on TK-10 renal (assay: NCI anticancer screen, dose series, 48 h).

SMILES | GI50 | TGI
O=C1CCCN1c1ccccc1I(=O)=O | > 100 µM | > 100 µM
O=C(O)c1cccc(COc2ccc([N+](=O)[O-])cc2Cl)c1 | 27.2 µM | > 100 µM
Nc1ccccc1C(=O)/C=C/c1c(O)ccc2ccccc12 | – | > 100 µM
CCC(C)(O)c1cnc(CC(C)C)c(=O)n1O (centres undefined) | – | > 100 µM
CCC1CN2CCc3cc(OC)c(OC)cc3C2CC1CC1c2cc(OC)c(OC)cc2CCN1C(=O)C1CCCN1 (centres undefined) | – | > 100 µM
CC(C(=O)c1ccc(Cl)cc1)/C(=N/NC(=O)NN)C(=O)Nc1cccc(C(F)(F)F)c1 (centres undefined) | – | > 100 µM
COc1cc2c(/C=N\N=C(N)N)c[nH]c2cc1C | 38.4 µM | > 100 µM
CCOP(=O)(OCC)C(C(=O)OC)C(=O)C(=O)Nc1ccc(Cl)cc1Cl (centres undefined) | – | > 100 µM
Cn1cc(-c2csc(-c3cn(CCCCN4CCCCC4)c4ccccc34)n2)c2cccnc21 | 1.61 µM | 3.05 µM
CC(C)=C1CCC(CN(C)C)C1=O (centres undefined) | – | 31 µM
COc1cccc(/C=N/[N-]C(=O)c2ccncc2)c1[O-].COc1cccc(/C=N/[N-]C(=O)c2ccncc2)c1[O-].[O]=[U](=[O])([OH2+])[OH2+] | 13.1 µM | > 31.6 µM
ClC(Cl)=C1C(=C(Cl)Cl)C(Cl)(Cl)C1(Cl)Cl | – | 11 µM
CC(C)(C)c1ccc2c(c1)S(=O)(=O)Nc1ccc(Cl)cc1NS(=O)(=O)c1cc(C(C)(C)C)ccc1OCCOCCOCCO2 | – | > 100 µM
O=C1c2ccccc2-c2c1c1ccccc1c(=O)n2CCN1CCNCC1 | 2.21 µM | 11.3 µM
Cc1ccc(OCCOCCOCCOCCOc2ccc(C)n(O)c2=S)c(=S)n1O | 0.527 µM | > 100 µM
N#CC(=Nc1ccccc1N(C(=O)c1ccccc1)C(=O)c1ccccc1)c1ccccc1 | – | > 100 µM
COc1c(C)n(CCO)ccc1=O | – | > 100 µM
COC(=O)C(=O)C(C(C)=O)C(=O)NCc1ccc(OC)c(OC)c1 (centres undefined) | – | > 100 µM
Nc1c(-c2ccccc2-c2c(N)[n+]([O-])c3ccccc3[n+]2[O-])[n+]([O-])c2ccccc2[n+]1[O-] | – | > 100 µM
O=C(CC(=O)C1CCOC1=O)C(=O)Nc1cccc(Cl)c1 (centres undefined) | – | > 100 µM
CCN1c2ccccc2-c2c3c1cc(C)cc3c1ccccc1[n+]2CC | – | 9.66 µM

SMILES | GI50 | TGI
Cc1cccc(C2=C/C(=C(\SS/C(C(=O)c3ccc(OCC(=O)O)c(Cl)c3Cl)=C3\C=C(c4cccc(C)c4)SS3)C(=O)c3ccc(OCC(=O)O)c(Cl)c3Cl)SS2)c1 | – | > 88.2 µM
CC(=O)N1CCN(c2ccc(OCC3COC(Cn4ccnc4)(c4ccc(Cl)cc4Cl)O3)cc2)CC1 (centres undefined) | – | 99.9 µM
O=C(Cc1nc2c3c(ccc2[nH]c1=O)C(=O)c1ccccc1C3=O)C(=O)Nc1ccccc1[N+](=O)[O-] | – | 44.8 µM
CC1=C(C#N)C(=O)CC(c2ccc(Cl)cc2)N(C)N1 (centres undefined) | – | > 100 µM
Nc1nc(-c2ccc(Cl)c([N+](=O)[O-])c2)cs1 | – | > 100 µM
COc1cc(/C=C2\[C@H]3c4c(c(OC)c(C)c(OC)c4OC)CC(C(=O)N2Cc2ccccc2)N3C)c(OC)c(C)c1OC | – | 79.2 µM
CN(C)C(=S)SSC(=S)N(C)C | 16.1 µM and > 100 µM and 26.4 µM | 30.6 µM and > 100 µM and > 70.6 µM
COc1ccc(C(CC(=O)c2ccc3c(c2)OCO3)c2c(O)c3ccccc3oc2=O)cc1OC (centres undefined) | – | > 100 µM
O=C(N/C(=C\c1ccc([N+](=O)[O-])cc1)c1nc2ccccc2[nH]1)c1ccccc1 | – | > 100 µM
COC(=O)/C([Se]c1c(C)cc(C)cc1C)=C(/[Se]c1c(C)cc(C)cc1C)C(=O)OC | – | > 100 µM
NC(=O)C(=O)CC(=O)c1ccccc1NC1=CC(=O)C(=O)c2ccccc21 | – | > 100 µM
Cc1cc2c(c(C(N)=O)c1C)-c1ccccc1C2=O | – | > 100 µM
CCCC(=O)C1=C(O)C(Cc2c(O)c(C)c(O)c(C(=O)CCC)c2O)=C(O)C(C)(C)C1=O | – | > 50 µM
COC(=O)/C(=N/O)C(C(=O)C=C(C)C)C(=O)C(=O)Nc1nc2ccc([N+](=O)[O-])cc2s1 (centres undefined) | – | 95.8 µM
Cc1ccccc1C1=[N+]([O-])c2ccc(Cl)cc2C1=O | – | 34.5 µM
c1coc(-c2c3ccc(=[N+]4CCCCC4)cc-3oc3cc(N4CCCCC4)ccc23)c1 | 0.036 µM | 0.382 µM
Cc1[nH]c2ccccc2c1C1Cc2ccccc2N1C(=O)C#Cc1ccc([N+](=O)[O-])cc1 (centres undefined) | – | > 100 µM
CCC/C=C/C=C/C1CC(O)C(O)C(=O)C1CO (centres undefined) | – | > 100 µM
CCOC(=O)NC(=O)c1cn(C2CCCCC2)c(=O)[nH]c1=O | – | > 100 µM
Cn1c(=O)nc2n(-c3cc(C(F)(F)F)cc(C(F)(F)F)c3)c3ccccc3nc-2c1=O | – | > 100 µM
